Reference: US20250127789A1, “COMPOSITIONS USEFUL FOR MODULATING SPLICING” (SKYHAWK THERAPEUTICS, INC., priority 2021, published 2025)

How the values were obtained:
[1] = test system: total ATXN3 protein in SK-N-MC cells; test: ATXN3 total protein assay (MSD); format: cell-based; settings: Human neuroblastoma SK-N-MC cells, 48 hours incubation, read-out: ATXN3 Protein Potency IC50
Method: Human neuroblastoma SK-N-MC cells were seeded at 10,000 cells/well in 384 well plates one day prior to compound treatment. The concentrations of compounds were tested at appropriate doses ranging from 30 μM to 0.6 nM. After incubation for 48 hours, the cells were lysed with 25 μL of lysis buffer containing protease inhibitors, and total ATXN3 protein levels were assessed by Mesoscale Discovery (MSD) assay developed with one pair of anti-ATXN3 antibodies. The capture and detect antibodies were raised in mouse and rabbit respectively. Anti-rabbit MSD-ST antibody was used for secondary antibody.
ATXN3 recombinant protein was used for standards. The readouts were captured with 35 μL of MSD read buffer and multi-array 384-well high binding plates.

[2] = test system: ATXN3 exon 4 skipped transcripts in SK-N-MC cells; test: ATXN3 quantitative splicing assay (qPCR of exon 4 skipped transcripts); format: cell-based; settings: Human neuroblastoma SK-N-MC cells, 24 h treatment, read-out: ATXN 3 E4 Skipping EC50
Method: Human neuroblastoma SK-N-MC cells were plated in 384-well plates at 20,000 cells/well. Twenty-four hours after plating, cells were treated with compounds for 24 hat appropriate concentrations ranging from 30 µM to 0.6 nM (0.3% DMSO). Treated cells were lysed in 15 μL of lysis buffer, and cDNA was synthesized using the Fast Advanced Cells-to-Ct kit Two μL of each cDNA was used in PCR reactions to confirm the exon 4 skipped transcripts of ATXN3. A second set of primers/probe E4E5 was used to detect the transcripts containing exon 4. The third set of primers/probe E8E9 was used to detect total gene level of ATXN3. The qPCR reactions were prepared in 384-well plates in 10 μL volume, using TaqMan™ Fast Advanced Master Mix with primers and probes shown in the table below. Reactions were run in a Quant Studio 6 qPCR instrument with default settings.
The primers and probes are listed below in Table 3.

## Cc1csc2c(NCc3ccccc3)nnnc12 [Compound 1, N-benzyl-7-methylthieno[3,2-d][1,2,3]triazin-4-amine]
[1]
  IC50: ≥ 10 µM
[2]
  EC50: ≥ 10 µM

## Cc1c(C[C@H](C)N)sc2c(NCc3ccccc3)nnnc12 [Compound 2, (S)-6-(2-aminopropyl)-N-benzyl-7-methylthieno[3,2-d][1,2,3]triazin-4-amine]
[1]
  IC50: ≥ 10 µM
[2]
  EC50: ≥ 10 µM

## Cc1csc2c(NCc3ccncc3)nnnc12 [Compound 3, 7-methyl-N-(pyridin-4-ylmethyl)thieno[3,2-d][1,2,3]triazin-4-amine]
[1]
  IC50: ≥ 10 µM
[2]
  EC50: ≥ 10 µM

## Cc1c(C[C@H](C)N)sc2c(NCc3ccncc3)nnnc12 [Compound 4, (S)-6-(2-aminopropyl)-7-methyl-N-(pyridin-4-ylmethyl)thieno[3,2-d][1,2,3]triazin-4-amine]
[1]
  IC50: 0.501 to 5 µM
[2]
  EC50: 0.501 to 5 µM
